On to `CC(C)n1nc(-c2c(Nc3ccccn3)nc(N)nc2-c2ccccc2)ccc1=O` [Example 135, 6-[2-Amino-4-phenyl-6-(2-pyridinylamino)-5-pyrimidinyl]-2-isopropyl-3(2H)-pyridazinone], for which the melting point – broadly, the temperature of the solid-liquid transition – fell in the range of 163 to 164 °C.

On to `CC(C)n1nc(-c2c(NC(=N)N)nc(N)nc2-c2ccccc2)ccc1=O` [Example 137, N-[2-amino-5-(1-isopropyl-6-oxo-1,6-dihydro-3-pyridazinyl)-6-phenyl-4-pyrimidinyl]guanidine], for which the melting point was in the range of 272 to 274.5 °C.

Turning to `CC(C)n1nc(-c2c(Sc3ccccc3)nc(N)nc2-c2ccccc2)ccc1=O` [Example 138, 6-[2-Amino-4-phenyl-6-(phenylthio)-5-pyrimidinyl]-2-isopropyl-3(2H)-pyridazinone], the melting point lay in the range of 214 to 215 °C.

Molecule `CC(C)n1nc(-c2c(-c3ccccc3)nc(N)[nH]c2=O)ccc1=O` [Example 140, 6-(2-amino-6-oxo-4-phenyl-1,6-dihydro-5-pyrimidinyl)-2-isopropyl-3(2H)-pyridazinone] displayed a melting point of 291 to 295 °C.

Molecule `CC(C)n1nc(-c2c(-c3ccccc3)nc(N)[nH]c2=S)ccc1=O` [Example 141, 6-(2-amino-4-phenyl-6-thioxo-1,6-dihydro-5-pyrimidinyl)-2-isopropyl-3(2H)-pyridazinone] registered a melting point of 295 to 299 °C.

The molecule `CSc1nc(N)nc(-c2ccccc2)c1-c1ccc(=O)n(C)n1` [Example 142, 6-[2-Amino-4-(methylthio)-6-phenyl-5-pyrimidinyl]-2-methyl-3(2H)-pyridazinone] had a melting point of 233 to 235 °C.

`Cn1nc(-c2c(-c3ccccc3)nc(N)nc2[S+](C)[O-])ccc1=O` (stereo not drawn) [Example 143, 6-[2-amino-4-(methylsulfinyl)-6-phenyl-5-pyrimidinyl]-2-methyl-3(2H)-pyridazinone] gave a melting point above 250 °C.

The molecule `COc1nc(N)nc(-c2ccccc2)c1-c1ccc(=O)n(C)n1` [Example 144, 6-(2-Amino-4-methoxy-6-phenyl-5-pyrimidinyl)-2-methyl-3(2H)-pyridazinone] had a melting point of 218 to 220 °C.

`Cn1nc(-c2c(NCc3ccccc3)nc(N)nc2-c2ccccc2)ccc1=O` [Example 145, 6-[2-Amino-4-(benzylamino)-6-phenyl-5-pyrimidinyl]-2-methyl-3(2H)-pyridazinone] registered a melting point above 250 °C.

Consider `Cn1nc(-c2c(NCc3ccccn3)nc(N)nc2-c2ccccc2)ccc1=O` [Example 146, 6-{2-amino-4-phenyl-6-[(2-pyridinylmethyl)amino]-5-pyrimidinyl}-2-methyl-3(2H)-pyridazinone], for which the melting point lay in the range of 248 to 250 °C.

In turn, `Cn1nc(-c2c(Nc3ccccc3)nc(N)nc2-c2ccccc2)ccc1=O` [Example 147, 6-(2-Amino-4-anilino-6-phenyl-5-pyrimidinyl)-2-methyl-3(2H)-pyridazinone] had a melting point of 252 to 254 °C.

`CSc1nc(N)nc(-c2ccc(F)cc2)c1-c1ccc(=O)n(C(C)C)n1` [Example 148, 6-[2-amino-4-(4-fluorophenyl)-6-(methylthio)-5-pyrimidinyl]-2-isopropyl-3(2H)-pyridazinone] displayed a melting point of 232 to 234 °C.

Regarding `COc1nc(N)nc(-c2ccc(F)cc2)c1-c1ccc(=O)n(C(C)C)n1` [Example 149, 6-[2-amino-4-(4-fluorophenyl)-6-methoxy-5-pyrimidinyl]-2-isopropyl-3(2H)-pyridazinone], the melting point fell in the range of 207 to 209 °C.

`COc1nc(N)nc(-c2ccc(S(C)(=O)=O)cc2)c1-c1ccc(=O)n(C(C)C)n1` [Example 150, 6-{2-amino-4-methoxy-6-[4-(methylsulfonyl)phenyl]-5-pyrimidinyl}-2-isopropyl-3(2H)-pyridazinone] yielded a melting point of 148 to 151 °C.

`CC(C)n1nc(-c2c(-c3ccc(F)cc3)nc(N)nc2[S+](C)[O-])ccc1=O` (stereo not drawn) [Example 151, 6-[2-amino-4-(4-fluorophenyl)-6-(methylsulfinyl)-5-pyrimidinyl]-2-isopropyl-3(2H)-pyridazinone]: the melting point fell in the range of 238 to 240 °C.

Take `CSc1nc(N)nc(-c2ccc(S(C)(=O)=O)cc2)c1-c1ccc(=O)n(C(C)C)n1` [Example 151, 6-[2-amino-4-[4-(methylsulfonyl)phenyl]-6-(methylthio)-5-pyrimidinyl]-2-isopropyl-3(2H)-pyridazinone]: the melting point lay in the range of 241 to 243 °C.

As to `CSc1nc(N)nc(-c2ccc([S+](C)[O-])cc2)c1-c1ccc(=O)n(C(C)C)n1` (stereo not drawn) [Example 152, 6-[2-amino-4-[4-(methylsulfinyl)phenyl]-6-(methylthio)-5-pyrimidinyl]-2-isopropyl-3(2H)-pyridazinone], the melting point lay within 221 to 223 °C.

As for `COc1nc(N)nc(-c2ccc([S+](C)[O-])cc2)c1-c1ccc(=O)n(C(C)C)n1` (stereo not drawn) [Example 153, 6-{2-Amino-4-methoxy-6-[4-(methylsulfinyl)phenyl]-5-pyrimidinyl}-2-isopropyl-3(2H)-pyridazinone], the melting point is 127 to 130 °C.

Molecule `CC(C)n1nc(-c2c(NCc3ccccc3)nc(N)nc2-c2ccc(F)cc2)ccc1=O` [Example 156, 6-[2-Amino-4-(benzylamino)-6-(4-fluorophenyl)-5-pyrimidinyl]-2-isopropyl-3(2H)-pyridazinone] had a melting point of 191 to 192 °C.

`CC(C)n1nc(-c2c(NCc3ccccn3)nc(N)nc2-c2ccc(F)cc2)ccc1=O` [Example 157, 6-{2-Amino-4-(4-fluorophenyl)-6-[(2-pyridinylmethyl)amino]-5-pyrimidinyl}-2-isopropyl-3(2H)-pyridazinone] gave a melting point of 210 to 212 °C.

The molecule `CC(C)n1nc(-c2c(Nc3ccccc3)nc(N)nc2-c2ccc(F)cc2)ccc1=O` [Example 158, 6-[2-Amino-4-anilino-6-(4-fluorophenyl)-5-pyrimidinyl]-2-isopropyl-3(2H)-pyridazinone] came in with a melting point above 250 °C.

On to `CC(C)n1nc(-c2c(-c3ccccc3)nc(N)n(CC(=O)OC(C)(C)C)c2=O)ccc1=O` [Example 159, tert-butyl [2-amino-5-(1-isopropyl-6-oxo-1,6-dihydro-3-pyridazinyl)-6-oxo-4-phenyl-1(6H)-pyrimidinyl]acetate], for which the melting point was 138 to 141 °C.

The molecule `CC(C)n1nc(-c2c(OCC(=O)OC(C)(C)C)nc(N)nc2-c2ccccc2)ccc1=O` [Example 159, tert-butyl {[2-amino-5-(1-isopropyl-6-oxo-1,6-dihydro-3-pyridazinyl)-6-phenyl-4-pyrimidinyl]-oxy}acetate] showed a melting point of 160 to 162 °C.

As for `CC(C)n1nc(-c2c(OCC(=O)c3ccccc3)nc(N)nc2-c2ccccc2)ccc1=O` [Example 161, 6-[2-Amino-4-(2-oxo-2-phenylethoxy)-6-phenyl-5-pyrimidinyl]-2-isopropyl-3(2H)-pyridazinone], the melting point was in the range of 182 to 183 °C.

Molecule `CC(C)CC(=O)Nc1ncc(-c2ccc(=O)n(C(C)C)n2)c(-c2ccccc2)n1` [Example 162, N-[5-(1-isopropyl-6-oxo-1,6-dihydro-3-pyridazinyl)-4-phenyl-2-pyrimidinyl]-3-methylbutanamide] showed a melting point of 161 °C.

Molecule `CC(C)C(=O)Nc1ncc(-c2ccc(=O)n(C(C)C)n2)c(-c2ccccc2)n1` [Example 163, N-[5-(1-isopropyl-6-oxo-1,6-dihydro-3-pyridazinyl)-4-phenyl-2-pyrimidinyl]-2-methylpropanamide] had a melting point of 145 to 147 °C.

`CCCC(=O)Nc1ncc(-c2ccc(=O)n(C(C)C)n2)c(-c2ccccc2)n1` [Example 164, N-[5-(1-isopropyl-6-oxo-1,6-dihydro-3-pyridazinyl)-4-phenyl-2-pyrimidinyl]butanamide] gave a melting point of 148 to 150 °C.

With `CC(C)n1nc(-c2cnc(NC(=O)C3CCCCC3)nc2-c2ccccc2)ccc1=O` [Example 165, N-[5-(1-isopropyl-6-oxo-1,6-dihydro-3-pyridazinyl)-4-phenyl-2-pyrimidinyl]cyclohexanecarboxamide], the melting point is 195 to 198 °C.

In turn, `COCC(=O)Nc1ncc(-c2ccc(=O)n(C(C)C)n2)c(-c2ccccc2)n1` [Example 166, N-[5-(1-isopropyl-6-oxo-1,6-dihydro-3-pyridazinyl)-4-phenyl-2-pyrimidinyl]-2-methoxyacetamide] yielded a melting point of 94 to 97 °C.

On to `CC(C)n1nc(-c2cnc(NC(=O)C3CC3)nc2-c2ccccc2)ccc1=O` [Example 167, N-[5-(1-isopropyl-6-oxo-1,6-dihydro-3-pyridazinyl)-4-phenyl-2-pyrimidinyl]cyclopropanecarboxamide], for which the melting point is 143 to 147 °C.

The molecule `COC(=O)Nc1ncc(-c2ccc(=O)n(C(C)C)n2)c(-c2ccccc2)n1` [Example 168, Methyl 5-(1-isopropyl-6-oxo-1,6-dihydro-3-pyridazinyl)-4-phenyl-2-pyrimidinylcarbamate] gave a melting point of 197 to 200 °C.

`CC(C)n1nc(-c2cnc(NC(=O)c3ccccc3)nc2-c2ccccc2)ccc1=O` [Example 169, N-[5-(1-isopropyl-6-oxo-1,6-dihydro-3-pyridazinyl)-4-phenyl-2-pyrimidinyl]benzamide] registered a melting point of 116 to 120 °C.

In the case of `CC(C)n1nc(-c2cnc(NC(=O)c3ccc(Cl)cc3)nc2-c2ccccc2)ccc1=O` [Example 171, 4-Chloro-N-[5-(1-isopropyl-6-oxo-1,6-dihydro-3-pyridazinyl)-4-phenyl-2-pyrimidinyl]benzamide], the melting point was determined as 100 °C.

As to `COc1ccc(C(=O)Nc2ncc(-c3ccc(=O)n(C(C)C)n3)c(-c3ccccc3)n2)cc1` [Example 172, N-[5-(1-isopropyl-6-oxo-1,6-dihydro-3-pyridazinyl)-4-phenyl-2-pyrimidinyl]-4-methoxybenzamide], the melting point fell in the range of 171 to 174 °C.

As to `Cc1ccc(C(=O)Nc2ncc(-c3ccc(=O)n(C(C)C)n3)c(-c3ccccc3)n2)cc1` [Example 173, N-[5-(1-isopropyl-6-oxo-1,6-dihydro-3-pyridazinyl)-4-phenyl-2-pyrimidinyl]-4-methylbenzamide], the melting point turned out to be 116 °C.

As for `CC(C)n1nc(-c2cnc(NC(=O)c3ccc(C(F)(F)F)cc3)nc2-c2ccccc2)ccc1=O` [Example 174, N-[5-(1-isopropyl-6-oxo-1,6-dihydro-3-pyridazinyl)-4-phenyl-2-pyrimidinyl]-4-(trifluoromethyl)benzamide], the melting point lay within 160 to 163 °C.
